Results from the NIST ThermoML archive (doi:10.1021/je9002306).

Legend:
[1] = mn = molality of the nth substance listed, in mol/kg; details: 298.15 K, 101.3 kPa, Liquid, Vibrating tube method
[2] = cn = amount concentration of the nth substance listed, in mol/dm3; details: 298.15 K, 101.3 kPa, Liquid, Wayne-Kerr 6430B Auto Balance Bridge

CCCCCCCCCCn1cc[n+](C)c1.[Br-] [1-decyl-3-methylimidazolium bromide] + CN(C)C=O
Details | mass density [kg/m3] | molar conductivity [S·m2/mol]
[1], m1 = 0.004548 | 944.601 | –
[1], m1 = 0.009331 | 944.904 | –
[1], m1 = 0.01416 | 945.206 | –
[1], m1 = 0.01889 | 945.493 | –
[1], m1 = 0.02351 | 945.774 | –
[1], m1 = 0.02843 | 946.065 | –
[1], m1 = 0.03329 | 946.353 | –
[1], m1 = 0.03813 | 946.64 | –
[1], m1 = 0.04346 | 946.942 | –
[1], m1 = 0.04852 | 947.237 | –
[2], c1 = 0.0001732 | – | 0.007794
[2], c1 = 0.0002484 | – | 0.007742
[2], c1 = 0.0003119 | – | 0.007708
[2], c1 = 0.0003859 | – | 0.007672
[2], c1 = 0.0004585 | – | 0.007636
[2], c1 = 0.0005275 | – | 0.007607
[2], c1 = 0.0005939 | – | 0.007575
[2], c1 = 0.0006636 | – | 0.007549
[2], c1 = 0.0007275 | – | 0.007523
[2], c1 = 0.0007761 | – | 0.007502

CCCCCCCCCCn1cc[n+](C)c1.[Br-] [1-decyl-3-methylimidazolium bromide] + C[S+](C)[O-]
Details | mass density [kg/m3] | molar conductivity [S·m2/mol]
[1], m1 = 0.005147 | 1095.4 | –
[1], m1 = 0.00868 | 1095.45 | –
[1], m1 = 0.01336 | 1095.53 | –
[1], m1 = 0.01682 | 1095.59 | –
[1], m1 = 0.02087 | 1095.65 | –
[1], m1 = 0.02779 | 1095.77 | –
[1], m1 = 0.03347 | 1095.87 | –
[1], m1 = 0.04096 | 1096 | –
[1], m1 = 0.04462 | 1096.07 | –
[1], m1 = 0.05299 | 1096.22 | –
[2], c1 = 0.0002071 | – | 0.003508
[2], c1 = 0.0003447 | – | 0.003485
[2], c1 = 0.0004551 | – | 0.003472
[2], c1 = 0.000577 | – | 0.003459
[2], c1 = 0.0006934 | – | 0.003446
[2], c1 = 0.0008066 | – | 0.003433
[2], c1 = 0.0008974 | – | 0.003426
[2], c1 = 0.001043 | – | 0.003413
[2], c1 = 0.001234 | – | 0.003397

CCCCCCCCCCn1cc[n+](C)c1.[Br-] [1-decyl-3-methylimidazolium bromide] + OCCO
Details | mass density [kg/m3] | molar conductivity [S·m2/mol]
[1], m1 = 0.005851 | 1109.99 | –
[1], m1 = 0.0106 | 1110 | –
[1], m1 = 0.01551 | 1110 | –
[1], m1 = 0.01977 | 1110.01 | –
[1], m1 = 0.02479 | 1110.01 | –
[1], m1 = 0.02646 | 1110.02 | –
[1], m1 = 0.03544 | 1110.02 | –
[1], m1 = 0.03722 | 1110.02 | –
[1], m1 = 0.04453 | 1110.03 | –
[2], c1 = 0.0003546 | – | 0.000667
[2], c1 = 0.0004359 | – | 0.000666
[2], c1 = 0.0005147 | – | 0.000664
[2], c1 = 0.0005865 | – | 0.000663
[2], c1 = 0.0006739 | – | 0.000661
[2], c1 = 0.0007633 | – | 0.00066
[2], c1 = 0.0008415 | – | 0.000659
[2], c1 = 0.0009056 | – | 0.000658
[2], c1 = 0.0009847 | – | 0.000657
[2], c1 = 0.001065 | – | 0.000656

CCCCCCCCCCCCn1cc[n+](C)c1.[Br-] [1-dodecyl-3-methylimidazolium bromide] + CN(C)C=O
Details | mass density [kg/m3] | molar conductivity [S·m2/mol]
[1], m1 = 0.003861 | 944.545 | –
[1], m1 = 0.008055 | 944.798 | –
[1], m1 = 0.0123 | 945.047 | –
[1], m1 = 0.01627 | 945.277 | –
[1], m1 = 0.02032 | 945.508 | –
[1], m1 = 0.02446 | 945.745 | –
[1], m1 = 0.02703 | 945.89 | –
[1], m1 = 0.03337 | 946.237 | –
[1], m1 = 0.03725 | 946.45 | –
[1], m1 = 0.04099 | 946.651 | –
[2], c1 = 0.0001357 | – | 0.007691
[2], c1 = 0.0001826 | – | 0.007656
[2], c1 = 0.0002263 | – | 0.007631
[2], c1 = 0.0002718 | – | 0.007605
[2], c1 = 0.0003169 | – | 0.007581
[2], c1 = 0.0003578 | – | 0.007564
[2], c1 = 0.0004043 | – | 0.007541
[2], c1 = 0.0004399 | – | 0.007527
[2], c1 = 0.0004725 | – | 0.00751
[2], c1 = 0.0005219 | – | 0.007494

CCCCCCCCCCCCn1cc[n+](C)c1.[Br-] [1-dodecyl-3-methylimidazolium bromide] + C[S+](C)[O-]
Details | mass density [kg/m3] | molar conductivity [S·m2/mol]
[1], m1 = 0.00268 | 1095.36 | –
[1], m1 = 0.004967 | 1095.36 | –
[1], m1 = 0.007868 | 1095.37 | –
[1], m1 = 0.01038 | 1095.38 | –
[1], m1 = 0.01304 | 1095.39 | –
[1], m1 = 0.016 | 1095.41 | –
[1], m1 = 0.01873 | 1095.42 | –
[1], m1 = 0.02082 | 1095.43 | –
[1], m1 = 0.02457 | 1095.44 | –
[1], m1 = 0.02736 | 1095.46 | –
[2], c1 = 0.0003026 | – | 0.003442
[2], c1 = 0.0003758 | – | 0.003429
[2], c1 = 0.0004555 | – | 0.003416
[2], c1 = 0.0005343 | – | 0.003406
[2], c1 = 0.0006078 | – | 0.003397
[2], c1 = 0.0006771 | – | 0.003389
[2], c1 = 0.0007464 | – | 0.003381
[2], c1 = 0.0008059 | – | 0.003374
[2], c1 = 0.0009021 | – | 0.003365

CCCCCCCCCCCCn1cc[n+](C)c1.[Br-] [1-dodecyl-3-methylimidazolium bromide] + OCCO
Details | mass density [kg/m3] | molar conductivity [S·m2/mol]
[1], m1 = 0.003873 | 1109.91 | –
[1], m1 = 0.007663 | 1109.87 | –
[1], m1 = 0.01013 | 1109.85 | –
[1], m1 = 0.0133 | 1109.82 | –
[1], m1 = 0.0168 | 1109.78 | –
[1], m1 = 0.02023 | 1109.75 | –
[1], m1 = 0.03123 | 1109.63 | –
[1], m1 = 0.03429 | 1109.6 | –
[2], c1 = 0.000348 | – | 0.000654
[2], c1 = 0.0004233 | – | 0.000653
[2], c1 = 0.0004995 | – | 0.000652
[2], c1 = 0.0005785 | – | 0.00065
[2], c1 = 0.0006521 | – | 0.000649
[2], c1 = 0.0007213 | – | 0.000648
[2], c1 = 0.0008076 | – | 0.000646
[2], c1 = 0.0008687 | – | 0.000645
[2], c1 = 0.0009337 | – | 0.000644
[2], c1 = 0.001012 | – | 0.000643

CCCCCCCCn1cc[n+](C)c1.[Br-] [1-methyl-3-octylimidazolium bromide] + CN(C)C=O
Details | mass density [kg/m3] | molar conductivity [S·m2/mol]
[1], m1 = 0.0036 | 944.562 | –
[1], m1 = 0.00742 | 944.824 | –
[1], m1 = 0.01114 | 945.075 | –
[1], m1 = 0.01485 | 945.316 | –
[1], m1 = 0.01862 | 945.557 | –
[1], m1 = 0.02243 | 945.792 | –
[1], m1 = 0.02634 | 946.03 | –
[1], m1 = 0.03009 | 946.26 | –
[1], m1 = 0.03685 | 946.653 | –
[1], m1 = 0.04079 | 946.877 | –
[2], c1 = 0.0002813 | – | 0.007841
[2], c1 = 0.0003412 | – | 0.007808
[2], c1 = 0.0003997 | – | 0.007775
[2], c1 = 0.0004885 | – | 0.007732
[2], c1 = 0.0005571 | – | 0.0077
[2], c1 = 0.0006412 | – | 0.007663
[2], c1 = 0.0007099 | – | 0.007638
[2], c1 = 0.0007743 | – | 0.007612
[2], c1 = 0.000834 | – | 0.00759
[2], c1 = 0.0008925 | – | 0.007568

CCCCCCCCn1cc[n+](C)c1.[Br-] [1-methyl-3-octylimidazolium bromide] + C[S+](C)[O-]
Details | mass density [kg/m3] | molar conductivity [S·m2/mol]
[1], m1 = 0.003697 | 1095.43 | –
[1], m1 = 0.007705 | 1095.54 | –
[1], m1 = 0.01147 | 1095.63 | –
[1], m1 = 0.01568 | 1095.74 | –
[1], m1 = 0.01953 | 1095.84 | –
[1], m1 = 0.02373 | 1095.95 | –
[1], m1 = 0.02785 | 1096.05 | –
[1], m1 = 0.03185 | 1096.15 | –
[1], m1 = 0.03581 | 1096.25 | –
[1], m1 = 0.03956 | 1096.34 | –
[2], c1 = 0.0002816 | – | 0.003566
[2], c1 = 0.0003649 | – | 0.003551
[2], c1 = 0.0004495 | – | 0.00354
[2], c1 = 0.0005343 | – | 0.003529
[2], c1 = 0.000601 | – | 0.003521
[2], c1 = 0.000699 | – | 0.00351
[2], c1 = 0.0007785 | – | 0.003501
[2], c1 = 0.0008592 | – | 0.003493
[2], c1 = 0.0009426 | – | 0.003485

CCCCCCCCn1cc[n+](C)c1.[Br-] [1-methyl-3-octylimidazolium bromide] + OCCO
Details | mass density [kg/m3] | molar conductivity [S·m2/mol]
[1], m1 = 0.006765 | 1110.04 | –
[1], m1 = 0.007869 | 1110.06 | –
[1], m1 = 0.01325 | 1110.12 | –
[1], m1 = 0.0167 | 1110.22 | –
[1], m1 = 0.02074 | 1110.25 | –
[1], m1 = 0.02364 | 1110.34 | –
[1], m1 = 0.03075 | 1110.39 | –
[1], m1 = 0.03492 | 1110.42 | –
[1], m1 = 0.03798 | 1110.48 | –
[2], c1 = 0.0003384 | – | 0.000678
[2], c1 = 0.0004129 | – | 0.000677
[2], c1 = 0.0004841 | – | 0.000675
[2], c1 = 0.0005608 | – | 0.000674
[2], c1 = 0.0006367 | – | 0.000673
[2], c1 = 0.0007095 | – | 0.000672
[2], c1 = 0.0007842 | – | 0.000671
[2], c1 = 0.0008592 | – | 0.00067
[2], c1 = 0.0009615 | – | 0.000669
[2], c1 = 0.001054 | – | 0.000668

C[S+](C)[O-] [dimethyl sulfoxide] + CCCCCCCCCCCCn1cc[n+](C)c1.[Br-]
Details | mass density [kg/m3]
[1], m2 = 0 | 1095.35

C[S+](C)[O-] [dimethyl sulfoxide] + CCCCCCCCCCn1cc[n+](C)c1.[Br-]
Details | mass density [kg/m3]
[1], m2 = 0 | 1095.33

C[S+](C)[O-] [dimethyl sulfoxide] + CCCCCCCCn1cc[n+](C)c1.[Br-]
Details | mass density [kg/m3]
[1], m2 = 0 | 1095.33

CN(C)C=O [dimethylformamide] + CCCCCCCCCCCCn1cc[n+](C)c1.[Br-]
Details | mass density [kg/m3]
[1], m2 = 0 | 944.305

CN(C)C=O [dimethylformamide] + CCCCCCCCCCn1cc[n+](C)c1.[Br-]
Details | mass density [kg/m3]
[1], m2 = 0 | 944.305

CN(C)C=O [dimethylformamide] + CCCCCCCCn1cc[n+](C)c1.[Br-]
Details | mass density [kg/m3]
[1], m2 = 0 | 944.305
